Source: patent US20240261443A1, “COMPOUNDS AND COMPOSITIONS USEFUL AS RADIOTRACERS FOR IMAGING OF REACTIVE OXIDATIVE SPECIES” (Wake Forest University Health Sciences, priority 2019, published 2024)

Assays:
[1] = system: SCC-61 and PC3 cell lines; test: DCFDA intracellular ROS detection assay; assay type: cell-based, human
Excerpt: For this, we used dichlorofluorescin diacetate (DCFDA) intracellular ROS detection assay kit and followed manufacture recommended protocol (ZHELEV et al., Docosahexaenoic Acid Sensitizes Leukemia Lymphocytes to Barasertib and Everolimus by ROS-dependent Mechanism Without Affecting the Level of ROS and Viability of Normal Lymphocytes. Anticancer Research 2016, 36 (4), 1673-1682). We studied two patient-derived tumor cell lines: SCC-61, […], and PC3, prostate cancer cell line. The maximum allowed mass for a typical clinical PET radiotracer is <100 μM (Schwarz et al., Radiochemistry and radiopharmacology. LIC-Nuclear Medicine and PET/CT: Technology and Techniques 2016, 11, 77), so we chose 10-100 μM as our concentration range for tracer-level assays. The lowest reported pharmacologic dose for ascorbate is 2.0 mM (Levine et al., Vitamin C: a concentration-function approach yields pharmacology and therapeutic discoveries. Adv Nutr 2011, 2 (2), 78-88), so we chose this dose for our pharmacological assays. We chose the ligand incubation times based on the maximum tracer uptake time (˜2 h) for a typical [^18F]-based PET radiotracer injection (Schlyer, PET tracers and radiochemistry. ANNALS-ACADEMY OF MEDICINE SINGAPORE 2004, 33 (2), 146-154).
Pharmacologic doses of ascorbate generates ROS, including H2O2 and trace amounts of labile iron extracellularly and/or intracellularly (Nauman et al., Systematic Review of Intravenous Ascorbate in Cancer Clinical Trials. Antioxidants (Basel) 2018, 7 (7), 89). We performed the same DCFDA assay with KS1 and ascorbate at pharmacological doses of 2 mM for 7 h in both SCC-61 and PC3 cell lines. ROS production was analyzed and reported (FIG. 11) using the similar measurements as above. Ligand specificity is commonly determined by pretreating the cells with high concentrations of blockers. We used superoxide dismutase (SOD), an enzyme that selectively suppresses accumulation of superoxide peroxide anions (Bielski et al., Chemistry of ascorbic acid radicals. in Ascorbic Acid: Chemistry, Metabolism, and Uses. Chapter 1982, 4, 81-100).

SCC-61 and rSCC-61 cells = test: [18F]KS1 in vitro cell uptake in HNSCC cells; assay type: cell-based, human
Protocol: ROS efficacy was evaluated in two tumor cell lines: (1)SCC-61 and rSCC-61 cells (HNSCC) (FIG. 5), and (2) PC3 (PCa) cell lines under normoxic and hypoxic conditions (FIG. 6) following previously published protocols by our group (Sai et al., Peptide-based PET imaging of the tumor restricted IL13RA2 biomarker. Oncotarget 2017, 5; Yamamoto et al., Correlation of 18F-FLT and 18F-FDG uptake on PET with Ki-67 immunohistochemistry in non-small cell lung cancer. European Journal of Nuclear Medicine and Molecular Imaging 2007, 34 (10), 1610-1616; Solingapuram Sai et al., Radiolabeling and initial biological evaluation of [18F]KBM-1 for imaging RAR-α receptors in neuroblastoma. Bioorganic & Medicinal Chemistry Letters 2017, 27 (6), 1425-1427). Several ROS blockers including fresh solution of non-radioactive compounds KS1, KS2, SOD (10 μM) in the cell media were added to the seeded tumor cells 1.0 h prior to radiotracer addition (n=6 per blocker). All the cells were then treated with [^18F]KS1 (2.0 μCi/well, UV mass=0.4 μg/mL and S.A=3100 mCi/μmol) and incubated for 60 min (n=6) at 37° C. All the cells (both with and without blockers) were washed and lysed with lysate buffer solution. Lysate samples from each well were collected for gamma counting.
Similarly, in another experiment, human PCa-PC3 cells were cultured under normoxic (˜21% O2) or hypoxic (1% O2) conditions for 48 h. Thereafter, similar to HNSCC cells (detailed above) all assay steps including blocker treatment, radiotracer addition, incubations, washings and lysis were carried out under normoxic or hypoxic conditions. All hypoxia experiments were performed in a hypoxia chamber (Biospherix X3 Xvivo system). Plates without radioactivity were used as controls. Additional aliquots were taken from each well to measure protein concentration. The counts per minute values of each well were normalized to the amount of radioactivity added to each well and was expressed as percent uptake relative to the control condition. The data were expressed as % ID/mg of protein present in each well.
We reported the basic in vitro cell uptake assay of [^18F]KS1 in PC3 and SCC-61 cell lines using KS1 and ascorbate as blockers (Solingapuram Sai et al., Initial biological evaluations of 18F-KS1, a novel ascorbate derivative to image oxidative stress in cancer. EJNMMI Research 2019, 9 (1), 43), following previously published protocols by our group (Sai, et al., Peptide-based PET imaging of the tumor restricted IL13RA2 biomarker. Oncotarget 2017, 8 (31), 50997-51007; Solingapuram Sai et al., Radiolabeling and initial biological evaluation of [(18)F]KBM-1 for imaging RAR-α receptors in neuroblastoma. Bioorganic & medicinal chemistry letters 2017, 27 (6), 1425-1427; Sattiraju et al., IL13RA2 targeted alpha particle therapy against glioblastomas. Oncotarget 2017, 8 (26), 42997-43007). Here we report complete cell uptake of [^18F]KS1 in SCC-61 and rSCC-61 cell lines of HNSCC using several ROS blocking agents including ascorbate, SOD, catalase, DHE, and non-radioactive compounds KS1 ([…]) and few ROS inducers including doxorubicin and ferritin. These agents were added in the cell media to the seeded tumor cells 1.0 h prior to radiotracer addition (n=6 per blocker). The y counts per minute values of each well were normalized to the amount of radioactivity added to each well and the protein concentration in the well and expressed as percent uptake relative to the control condition. The data were expressed as % ID/mg of protein present in each well. […]

[2] = system: SCC-61 and rSCC-61 tumors; test: microPET/CT imaging in SCC-61 and rSCC-61 tumor-bearing mice; assay type: in vivo
Excerpt: After evaluating the complete in vitro ROS uptake and stability profile of [^18F]KS1, we performed in vivo microPET/CT scans in tumor-bearing mice. To test our hypothesis of selective binding of [^18F]KS1 to image ROS in tumor tissue, we reported the baseline and blocking PET imaging data in a murine model of PCa (Solingapuram Sai et al., Initial biological evaluations of 18F-KS1, a novel ascorbate derivative to image oxidative stress in cancer. EJNMMI Research 2019, 9 (1), 43). Further, to test the differential ROS uptake of [^18F]KS1, microPET/CT imaging experiments were performed in both SCC-61 and rSCC-61 tumor-bearing mice (n=5, 25±2.5 g).

SMILES	ROS generation (DCFDA fluorescence) ([1]; 10 μM and 100 μM, SCC-61 and PC3)	fluorescence intensity (ROS generation) at pharmacological dose ([1]; 2 mM, 7 h, compared to 100 μM)	increased intensity subdued with SOD addition ([1]; 2 mM, SOD blocker)	uptake increase with ROS inducer doxorubicin (SCC-61 and rSCC-61 cells; Example 8)	radioactive uptake in SCC-61 cells compared to rSCC-61 uptake (SCC-61 and rSCC-61 cells; Example 8, 60 min, 37° C.)	uptake blocked by nonradioactive KS1 (SCC-61 and rSCC-61 cells; Example 8, KS1 10 μM added 1.0 h prior)	uptake blocked by SOD (SCC-61 and rSCC-61 cells; Example 8, SOD 10 μM added 1.0 h prior)	radioactive uptake in SCC-61 cells compared to rSCC-61 uptake (SCC-61 and rSCC-61 cells; Example 14)	radioactive uptake increased by ROS-inducer Dox (SCC-61 and rSCC-61 cells; Example 14)	radioactive uptake increased by ferritin (SCC-61 and rSCC-61 cells; Example 14)	radioactive uptake inhibited by catalase (SCC-61 and rSCC-61 cells; Example 14)	uptake in SCC-61 cells blocked by nonradioactive KS1 (SCC-61 and rSCC-61 cells; Example 14, KS1 (100 PM) added 1.0 h prior)	uptake in SCC-61 cells blocked by SOD (SCC-61 and rSCC-61 cells; Example 14, added 1.0 h prior)	uptake in SCC-61 cells blocked by ascorbate (SCC-61 and rSCC-61 cells; Example 14, added 1.0 h prior)	tumor uptake in SCC-61 tumors versus rSCC-61 tumors ([2]; ROI analysis on PET scans)	residual uptake in other organs, including bladder and kidney ([2]; post 1-h radiotracer injection)
O=C1O/C(=C/CCl)C(O)=C1OCc1ccc(OCCF)cc1 [KS1, (E)-5-(2-chloroethylidene)-3-(4-(2-fluoroethoxy)benzyloxy)-4-hydroxyfuran-2(5H)-one]	did not generate ROS	increased significantly	~3 fold													
O=C1O/C(=C/CCl)C(O)=C1OCc1ccc(OCC[18F])cc1 [[^18F]KS1]				~30%	~1.5 fold	~40%	~60%	~3 fold	~20%	~32%	~90%	~70%	~65%	~65%	~1.2 fold	no residual uptake
